Reference: the supplement of paper PMC5908809

Key:
[1] = tested on: normal primary NK cells, pool 1 (3 donors), resting (IL-2 0 ng/mL); assay: drug sensitivity score (DSS) (DSS units); higher = more sensitive; extreme values may be limits of the assay; conditions: 72 h
YT (IL-2 2.5 ng/mL) [2] = assay: as above; conditions: 72 h
DERL-7 (IL-2 2.5 ng/mL) [3] = assay: as above; conditions: 72 h
NK-92 (IL-2 2.5 ng/mL) [4] = assay: as above; conditions: 72 h
NK-YS (IL-2 2.5 ng/mL) [5] = assay: as above; conditions: 72 h
KHYG-1 (IL-2 2.5 ng/mL) [6] = assay: as above; conditions: 72 h
NKL (IL-2 2.5 ng/mL) [7] = assay: as above; conditions: 72 h
SNK-6 (IL-2 2.5 ng/mL) [8] = assay: as above; conditions: 72 h
[9] = tested on: normal primary NK cells, pool 1 (3 donors) (IL-2 2.5 ng/mL); assay: as above; conditions: 72 h
KAI3 (IL-2 2.5 ng/mL) [10] = assay: as above; conditions: 72 h
[11] = tested on: normal primary NK cells, pool 1 (3 donors), resting (IL-2 0 ng/mL); assay: percent inhibition of viability; higher = more inhibition; conditions: 72 h
YT (IL-2 2.5 ng/mL) [12] = assay: as above; conditions: 72 h
DERL-7 (IL-2 2.5 ng/mL) [13] = assay: as above; conditions: 72 h
NK-92 (IL-2 2.5 ng/mL) [14] = assay: as above; conditions: 72 h
NK-YS (IL-2 2.5 ng/mL) [15] = assay: as above; conditions: 72 h
KHYG-1 (IL-2 2.5 ng/mL) [16] = assay: as above; conditions: 72 h
NKL (IL-2 2.5 ng/mL) [17] = assay: as above; conditions: 72 h
SNK-6 (IL-2 2.5 ng/mL) [18] = assay: as above; conditions: 72 h
[19] = tested on: normal primary NK cells, pool 1 (3 donors) (IL-2 2.5 ng/mL); assay: as above; conditions: 72 h
KAI3 (IL-2 2.5 ng/mL) [20] = assay: as above; conditions: 72 h
IMC-1 (IL-2 20 ng/mL) [21] = assay: drug sensitivity score (DSS) (DSS units); higher = more sensitive; extreme values may be limits of the assay; conditions: 72 h
[22] = tested on: normal primary NK cells, pool 3 (3 donors) (IL-2 2.5 ng/mL); assay: as above; conditions: 72 h
[23] = tested on: normal primary NK cells, pool 2 (3 donors) (IL-2 2.5 ng/mL); assay: as above; conditions: 72 h
[24] = tested on: normal NK cells expanded with K562-aAPC; assay: as above; conditions: 72 h; IL-2 2.5 ng/mL
Protocol: (§1)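 Drug sensitivity and resistance testing on K562-aAPC-expanded normal NK cells: 5 concentrations (10-fold steps over a 10,000-fold range), 72 h at 37 °C, viability by CellTiter-Glo normalised to DMSO and benzethonium chloride controls; DSS from the fitted curve.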

[25] = tested on: normal NK cells expanded with K562-aAPC; assay: percent inhibition of viability; higher = more inhibition; conditions: 72 h, IL-2 2.5 ng/mL
Protocol: as §1

IMC-1 (IL-2 20 ng/mL) [26] = assay: as above; conditions: 72 h
[27] = tested on: normal primary NK cells, pool 3 (3 donors) (IL-2 2.5 ng/mL); assay: as above; conditions: 72 h
[28] = tested on: normal primary NK cells, pool 2 (3 donors) (IL-2 2.5 ng/mL); assay: as above; conditions: 72 h

Cc1sc2c(c1C)C(c1ccc(Cl)cc1)=N[C@@H](CC(=O)OC(C)(C)C)c1nnc(C)n1-2 [(+)JQ1] (max concentration tested 10000 nM)
drug sensitivity score [1]: 8.55 | drug sensitivity score (YT (IL-2 2.5 ng/mL) [2]): 11.7 | drug sensitivity score (DERL-7 (IL-2 2.5 ng/mL) [3]): 24.3 | drug sensitivity score (NK-92 (IL-2 2.5 ng/mL) [4]): 4.26 | drug sensitivity score (NK-YS (IL-2 2.5 ng/mL) [5]): 13.9 | drug sensitivity score (KHYG-1 (IL-2 2.5 ng/mL) [6]): 19.9 | drug sensitivity score (NKL (IL-2 2.5 ng/mL) [7]): 16.6 | drug sensitivity score (SNK-6 (IL-2 2.5 ng/mL) [8]): 15 | drug sensitivity score [9]: 12.1 | drug sensitivity score (KAI3 (IL-2 2.5 ng/mL) [10]): 9.24 | percent inhibition of viability ([11]; 1 nM): -3.74% | percent inhibition of viability ([11]; 10 nM): -13% | percent inhibition of viability ([11]; 100 nM): -3.42% | percent inhibition of viability ([11]; 1000 nM): 34% | percent inhibition of viability ([11]; 10000 nM): 74.8% | percent inhibition of viability (YT (IL-2 2.5 ng/mL) [12]; 1 nM): 1.34% | percent inhibition of viability (YT (IL-2 2.5 ng/mL) [12]; 10 nM): -1.16% | percent inhibition of viability (YT (IL-2 2.5 ng/mL) [12]; 100 nM): 8.16% | percent inhibition of viability (YT (IL-2 2.5 ng/mL) [12]; 1000 nM): 56.7% | percent inhibition of viability (YT (IL-2 2.5 ng/mL) [12]; 10000 nM): 59.4% | percent inhibition of viability (DERL-7 (IL-2 2.5 ng/mL) [13]; 1 nM): 3.63% | percent inhibition of viability (DERL-7 (IL-2 2.5 ng/mL) [13]; 10 nM): 11.6% | percent inhibition of viability (DERL-7 (IL-2 2.5 ng/mL) [13]; 100 nM): 54.6% | percent inhibition of viability (DERL-7 (IL-2 2.5 ng/mL) [13]; 1000 nM): 96.1% | percent inhibition of viability (DERL-7 (IL-2 2.5 ng/mL) [13]; 10000 nM): 98.5% | percent inhibition of viability (NK-92 (IL-2 2.5 ng/mL) [14]; 1 nM): -5.26% | percent inhibition of viability (NK-92 (IL-2 2.5 ng/mL) [14]; 10 nM): -16.7% | percent inhibition of viability (NK-92 (IL-2 2.5 ng/mL) [14]; 100 nM): -31.8% | percent inhibition of viability (NK-92 (IL-2 2.5 ng/mL) [14]; 1000 nM): 22.2% | percent inhibition of viability (NK-92 (IL-2 2.5 ng/mL) [14]; 10000 nM): 35.5% | percent inhibition of viability (NK-YS (IL-2 2.5 ng/mL) [15]; 1 nM): -10.6% | percent inhibition of viability (NK-YS (IL-2 2.5 ng/mL) [15]; 10 nM): -2.12% | percent inhibition of viability (NK-YS (IL-2 2.5 ng/mL) [15]; 100 nM): 19.8% | percent inhibition of viability (NK-YS (IL-2 2.5 ng/mL) [15]; 1000 nM): 62.4% | percent inhibition of viability (NK-YS (IL-2 2.5 ng/mL) [15]; 10000 nM): 73.2% | percent inhibition of viability (KHYG-1 (IL-2 2.5 ng/mL) [16]; 1 nM): -9.07% | percent inhibition of viability (KHYG-1 (IL-2 2.5 ng/mL) [16]; 10 nM): -3.7% | percent inhibition of viability (KHYG-1 (IL-2 2.5 ng/mL) [16]; 100 nM): 24.7% | percent inhibition of viability (KHYG-1 (IL-2 2.5 ng/mL) [16]; 1000 nM): 89.8% | percent inhibition of viability (KHYG-1 (IL-2 2.5 ng/mL) [16]; 10000 nM): 92.7% | percent inhibition of viability (NKL (IL-2 2.5 ng/mL) [17]; 1 nM): -9.69% | percent inhibition of viability (NKL (IL-2 2.5 ng/mL) [17]; 10 nM): -1.54% | percent inhibition of viability (NKL (IL-2 2.5 ng/mL) [17]; 100 nM): 29.4% | percent inhibition of viability (NKL (IL-2 2.5 ng/mL) [17]; 1000 nM): 69% | percent inhibition of viability (NKL (IL-2 2.5 ng/mL) [17]; 10000 nM): 60.9% | percent inhibition of viability (SNK-6 (IL-2 2.5 ng/mL) [18]; 1 nM): -15.8% | percent inhibition of viability (SNK-6 (IL-2 2.5 ng/mL) [18]; 10 nM): -1.34% | percent inhibition of viability (SNK-6 (IL-2 2.5 ng/mL) [18]; 100 nM): 12.2% | percent inhibition of viability (SNK-6 (IL-2 2.5 ng/mL) [18]; 1000 nM): 71.4% | percent inhibition of viability (SNK-6 (IL-2 2.5 ng/mL) [18]; 10000 nM): 74.2% | percent inhibition of viability ([19]; 1 nM): 1.42% | percent inhibition of viability ([19]; 10 nM): 1.32% | percent inhibition of viability ([19]; 100 nM): 9.32% | percent inhibition of viability ([19]; 1000 nM): 56.9% | percent inhibition of viability ([19]; 10000 nM): 84.1% | percent inhibition of viability (KAI3 (IL-2 2.5 ng/mL) [20]; 1 nM): -7.52% | percent inhibition of viability (KAI3 (IL-2 2.5 ng/mL) [20]; 10 nM): -10.2% | percent inhibition of viability (KAI3 (IL-2 2.5 ng/mL) [20]; 100 nM): 3.52% | percent inhibition of viability (KAI3 (IL-2 2.5 ng/mL) [20]; 1000 nM): 47.9% | percent inhibition of viability (KAI3 (IL-2 2.5 ng/mL) [20]; 10000 nM): 53.6%

Cc1cnc(Nc2ccc(OCCN3CCCC3)cc2)nc1Nc1cccc(S(=O)(=O)NC(C)(C)C)c1 [Fedratinib] (max concentration tested 10000 nM)
drug sensitivity score (IMC-1 (IL-2 20 ng/mL) [21]): 12.1 | drug sensitivity score [22]: 14.9 | drug sensitivity score [23]: 15.3 | drug sensitivity score [24]: 15.3 | percent inhibition of viability ([25]; 1 nM): -1.65% | percent inhibition of viability ([25]; 10 nM): -2.82% | percent inhibition of viability ([25]; 100 nM): 11.2% | percent inhibition of viability ([25]; 1000 nM): 73.8% | percent inhibition of viability ([25]; 10000 nM): 101% | percent inhibition of viability (IMC-1 (IL-2 20 ng/mL) [26]; 1 nM): -6.81% | percent inhibition of viability (IMC-1 (IL-2 20 ng/mL) [26]; 10 nM): -6.37% | percent inhibition of viability (IMC-1 (IL-2 20 ng/mL) [26]; 100 nM): -28.8% | percent inhibition of viability (IMC-1 (IL-2 20 ng/mL) [26]; 1000 nM): 55% | percent inhibition of viability (IMC-1 (IL-2 20 ng/mL) [26]; 10000 nM): 101% | percent inhibition of viability ([27]; 1 nM): -3.74% | percent inhibition of viability ([27]; 10 nM): -2.87% | percent inhibition of viability ([27]; 100 nM): 15.8% | percent inhibition of viability ([27]; 1000 nM): 68.8% | percent inhibition of viability ([27]; 10000 nM): 100% | percent inhibition of viability ([28]; 1 nM): -1.22% | percent inhibition of viability ([28]; 10 nM): -4.41% | percent inhibition of viability ([28]; 100 nM): 13.2% | percent inhibition of viability ([28]; 1000 nM): 72.5% | percent inhibition of viability ([28]; 10000 nM): 100%
